Reference: patent US11534441B2, “MAP4K1 inhibitors” (Blueprint Medicines Corporation, priority 2020, dated 2022)

Key:
MAP4K1 (HPK1) = MAP4K1 (HPK1) (Homo sapiens (Human), UniProt Q92918); test: MAP4K1 (HPK1) biochemical enzymatic activity, electrophoretic mobility shift (EZReader 2), ATP at APPKM (26 μM)
Outline: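 Enzyme at 0.1-15 nM was incubated with 1.5 μM fluorescent peptide and ATP at the apparent Km (26 μM) in HEPES pH 7.5, MgCl2, DTT and Brij 35. The reaction ran at 25° C for 60-180 min with a 10-point, 4-fold compound series (1% DMSO) and was stopped with EDTA. Substrate and product peptides were resolved by microfluidic mobility shift, and their peak ratio gave activity.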

expanded CD3+ T cells = test: T cell enhancement of cytokines: IL2 measurement (HTRF) in expanded CD3+ T cells stimulated with anti-CD3/anti-CD28; assay type: cell-based, human; details: IL-2 measurement
Protocol: T cells are isolated from whole blood of healthy donors by immunomagnetic negative selection following manufacture's protocol (StemCell Technologies, human T cell isolation kit). Purity of isolated cells is assessed by flow cytometry and yields 95-98% CD3^+ T cells. For expansion of T cells, 1×10^6 cells/well are plated in serum free cell expansion media (ThermoFisher) containing 30 U of recombinant human IL2 (R&D) and stimulated with 25 ul of CD3/CD28 beads (Invitrogen) in 24 well plates for 3-4 days. T cells are then expanded in 175 cm flasks and maintained at a cell density of 1 to 2.5×10^6 cells/ml days by addition of ⅔ of fresh media every 2-3 days. After 10-14 days, cells are frozen in BamBanker freezing media (Thermo) and stored in liquid nitrogen.
For IL2 measurement, expanded CD3^+ T cells are dispensed at 100K cells/well (cultured in X-VIVO 10 Serum-free media) and are stimulated with plate-bound anti-CD3 and soluble anti-CD28 in the presence of vehicle or compound of the disclosure at various concentrations for 24 h. As outlined in the manufacturer's protocol (Cisbio), 16 μL of conditioned media is transferred to a white 384-well low volume plate. Following a 24 h incubation with the anti-IL2 antibodies, the homogenous time resolved fluorescence (HTRF) is measured.

[1] = Homo sapiens, T-cell, class designation
[2] = Homo sapiens, T-cell, numeric value

Chain of MAP4K1 (HPK1) (Q92918 whole entry): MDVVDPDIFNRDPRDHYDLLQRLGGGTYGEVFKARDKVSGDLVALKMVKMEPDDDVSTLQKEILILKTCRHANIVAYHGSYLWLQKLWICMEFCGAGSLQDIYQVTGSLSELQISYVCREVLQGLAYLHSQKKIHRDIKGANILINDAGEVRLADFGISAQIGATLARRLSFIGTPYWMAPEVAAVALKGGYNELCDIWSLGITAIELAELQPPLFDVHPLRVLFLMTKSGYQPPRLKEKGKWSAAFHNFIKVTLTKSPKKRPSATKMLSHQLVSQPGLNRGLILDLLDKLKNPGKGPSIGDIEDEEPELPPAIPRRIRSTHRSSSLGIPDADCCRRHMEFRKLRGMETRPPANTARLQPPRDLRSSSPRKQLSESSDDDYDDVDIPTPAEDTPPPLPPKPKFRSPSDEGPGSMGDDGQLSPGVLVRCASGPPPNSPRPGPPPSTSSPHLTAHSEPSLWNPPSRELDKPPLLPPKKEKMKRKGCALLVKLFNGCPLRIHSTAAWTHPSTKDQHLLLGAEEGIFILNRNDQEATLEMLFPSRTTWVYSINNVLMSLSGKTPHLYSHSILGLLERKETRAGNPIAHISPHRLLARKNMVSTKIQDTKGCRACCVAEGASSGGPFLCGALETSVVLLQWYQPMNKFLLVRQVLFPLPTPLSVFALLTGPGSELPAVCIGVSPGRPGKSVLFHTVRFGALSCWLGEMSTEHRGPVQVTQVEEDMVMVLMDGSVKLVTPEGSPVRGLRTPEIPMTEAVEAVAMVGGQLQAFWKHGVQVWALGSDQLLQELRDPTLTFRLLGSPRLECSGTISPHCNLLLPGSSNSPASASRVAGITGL

Structure (SMILES)	IC50 (MAP4K1 (HPK1); class designation) [nM]	IC50 (MAP4K1 (HPK1); numeric value) [nM]	EC50 (expanded CD3+ T cells; class designation) [nM]	EC50 (expanded CD3+ T cells; numeric value) [nM]	EC50 (expanded CD3+ T cells; [1]) [nM]	EC50 (expanded CD3+ T cells; [2]) [nM]
CC[C@@](C)(N)c1cnc(OCC(F)(F)F)c2cnc(Nc3ccc4c(n3)[C@@H](C)[C@H](C)OC4=O)cc12 (single isomer, unassigned) [Compound 182]	1.1 to 10	2.92	35.1 to 45	38.8		
COCC(C)(N)c1cnc(OC2CC2)c2cnc(Nc3ccc4c(n3)[C@@H](C)[C@H](C)OC4=O)cc12 (single isomer, unassigned) [Compound 184, (7S,8R)-2-((5-((R)-2-Amino-1-methoxypropan-2-yl)-8-cyclopropoxy-2,7-naphthyridin-3-yl)amino)-7,8-dimethyl-7,8-dihydro-5H-pyrano[4,3-b]pyridin-5-one or (7S,8R)-2-((5-((S)-2-amino-1-methoxypropan-2-yl)-8-cyclopropoxy-2,7-naphthyridin-3-yl)amino)-7,8-dimethyl-7,8-dihydro-5H-pyrano[4,3-b]pyridin-5-one]	< 0.3	0.27	< 35	33.4		
COc1ncc(C(C)(C)N)c2cc(Nc3ccnc(C(C)(C)C)n3)ncc12 [Compound 3, 5-(2-Aminopropan-2-yl)-N-(2-(tert-butyl)pyrimidin-4-yl)-8-methoxy-2,7-naphthyridin-3-amine]		0.36			> 55	108
COc1ccc(C(C)(C)N)c2cc(Nc3ccnc(C(C)(C)F)n3)ncc12 [Compound 5, 5-(2-Aminopropan-2-yl)-N-(2-(2-fluoropropan-2-yl)pyrimidin-4-yl)-8-methoxyisoquinolin-3-amine]	0.31 to 1	0.37			35.1 to 45	37.1
COc1ncc(C(C)(C)N)c2cc(Nc3ccnc(C(C)(C)F)n3)ncc12 [Compound 7]	0.31 to 1	0.91			< 35	21.7
COc1ncc(C(C)(C)N)c2cc(Nc3ccc4c(n3)CCNC4=O)ncc12 [Compound 11]	0.31 to 1	0.33			< 35	10.9
COc1ncc(C(C)(C)N)c2cc(Nc3ccc4c(n3)CCOC4=O)ncc12 [Compound 12]	0.31 to 1	0.31			< 35	11
CC[C@H](C)n1nc(Nc2cc3c(C(C)(C)N)cnc(OC)c3cn2)ccc1=O [Compound 14]	0.31 to 1	0.64	45.1 to 55	51		
CC[C@@H](C)n1nc(Nc2cc3c(C(C)(C)N)cnc(OC)c3cn2)ccc1=O [Compound 15]	0.31 to 1				< 35	30.9
CC[C@H](C)c1nc(Nc2cc3c(C(C)(C)N)cnc(OC)c3cn2)ccc1C#N [Compound 19]	< 0.3	0.3	< 35	27.3		
CC[C@H](C)c1nc(Nc2cc3c(C(C)(C)N)cnc(OC)c3cn2)cnc1C#N [Compound 20]	0.31 to 1	0.73	45.1 to 55	51.1		
CC[C@@H](C)c1nc(Nc2cc3c(C(C)(C)N)cnc(OC)c3cn2)cnc1C#N [Compound 21]	0.31 to 1	0.85	45.1 to 55	48.7		
COc1ncc(C(C)(C)N)c2cc(Nc3ccc4c(n3)C(C)(C)OC4=O)ncc12 [Compound 26]	0.31 to 1	0.55			< 35	14
COc1ncc(C(C)(C)N)c2cc(Nc3ccc(C#N)c(C(C)(C)F)n3)ncc12 [Compound 28]	0.31 to 1	0.67			< 35	31.4
COc1ncc(C(C)(C)N)c2cc(Nc3ccc4c(n3)CC3(CC3)OC4=O)ncc12 [Compound 33]	< 0.3	0.13			< 35	9.3
COc1ncc(C(C)(C)N)c2cc(Nc3ccc4c(n3)CC(C)(C)CC4=O)ncc12 [Compound 34, 2-((5-(2-Aminopropan-2-yl)-8-methoxy-2,7-naphthyridin-3-yl)amino)-7,7-dimethyl-7,8-dihydroquinolin-5 (6H)-one]	< 0.3	0.24			35.1 to 45	45.6
